This is an account of results in a melting point compilation (Tetko et al.; mined from patent text by program, amines drawn as free bases though some values may be those of a salt).

Molecule `Cc1c(CC(=O)O)c2cc(OCc3csc(-c4ccc(C(F)(F)F)cc4)n3)ccc2n1Cc1ccc(Cl)cc1` yielded a melting point of 196 to 197 °C. With `COP(=O)(Cc1nc(C)c(C)o1)OC` the figure was 54 to 57 °C; with `CCCCn1c(C)c(Br)c(=O)c(C(=O)Nc2c(CC)cccc2CC)c1C`, 158 to 160 °C. `CCOC(=O)c1ccc(NCc2ccccc2)cc1` gave a melting point of 90 to 93 °C.

Take `COc1cccc(C(=O)Nc2ccc(OCCN3CCOCC3)c3ccccc23)c1`: the melting point fell in the range of 105 to 107 °C.

`CCOC(=O)C(N)=NOC(=O)c1ccc(F)cc1` returned a melting point of 196 to 198 °C. With `COC(=O)C[C@H](O)C[C@H](O)CCc1c(-c2ccc(F)cc2)c(-c2ccc(F)cc2)c(C(=O)Nc2ccc(S(N)(=O)=O)cc2)n1C(C)C` the figure was 106 to 108 °C; with `O=C(NC(=O)c1c(F)cccc1F)Nc1ccc(Oc2cccc3ccccc23)nc1`, 224 °C. With `Cn1c2c(cnc3ccccc32)c(=O)n1-c1ccc(Cl)cc1` the figure was 158 to 161 °C; with `CCn1nc2c(N)nc3ccccc3c2c1CC(C)(C)NCCS(C)(=O)=O`, 155 to 157 °C. Next, `CCCCCCCCCCC[C@H](CC(=O)N[C@@H](CO)C(=O)OCc1ccccc1)OC(=O)CCCCCCCCCC`: 53 to 54 °C; `Cc1cc(C2=C(c3cccc(F)c3)C(=O)C(C)(C)O2)ccc1S(C)(=O)=O`: 138 to 139 °C; `CCCCCCCCCCCCCCCCCCOc1cc(OCCCOc2ccc(S(C)(=O)=O)cc2)cc(N(CC(=O)O)CC(=O)O)c1`: 118 to 120 °C. `CC(=O)/C=C/c1ncn2c1CN(C)C(=O)c1c(Cl)cccc1-2` registered a melting point of 235 to 237 °C. With `CCOC(=O)C1=C(C)N(C(=O)c2ccccc2)C(C)=C(C(=O)OCC)C1c1cccc([N+](=O)[O-])c1` the figure was 98 to 101 °C. `NC(=O)c1ccc2c(c1)C(=O)c1cc(F)ccc1C2=O` came in with a melting point of 322 to 323 °C. Next, `COc1cc(OC)c(NC(=O)CC(C#N)c2ccccc2)c(OC)c1` (stereo unspecified): 157 to 160 °C; `Clc1ccc(C2=CCc3cc(Br)cnc3O2)cc1Cl`: 138 to 140 °C. With `COc1cc(OC)cc(-c2oc3ncnc(Cl)c3c2-c2ccccc2)c1` the figure was 138 to 140 °C; with `COc1c2occc2cc2c(C)cc(=O)oc12`, 167 to 168 °C. Next, `CCOC(=O)c1cccc(N2C(=O)C=CC2=O)c1C(=O)OCC`: 86 to 90 °C; `O=C(Nc1cccc(F)c1)NC1CCN(S(=O)(=O)c2ccc(Cl)cc2)CC1`: 245 to 248 °C; `CC(=O)NC[C@H]1CN(c2ccc(N3CCC(Cc4nnn(C)n4)CC3)c(F)c2)C(=O)O1`: 136 to 138 °C.

`COc1ccc(N(C(=O)c2ccc(OC)c(F)c2)c2ccc(F)cc2)cc1` gave a melting point of 54 to 56 °C.

`CCOC(=O)CC(=O)c1cc(F)c(Br)cc1F` came in with a melting point of 51 to 53 °C. With `CC(C)S(=O)(=O)NC(=O)c1cccc([N+](=O)[O-])c1` the figure was 175 to 177 °C; with `CCc1c(F)nc(-c2ccccc2)nc1F`, 49 to 51 °C. `Cc1nc(Br)sc1NC(=O)OC(C)(C)C`: the melting point was 114 to 116 °C.

The molecule `CC(C)(C)OC(=O)NCCN1C(=O)c2ccccc2C1=O` showed a melting point of 143 to 145 °C. Next, `CCOC(=O)c1oc(-c2ccc(C)cc2)cc(=O)c1Br`: 144 °C. With `CN(C)CCc1ccc(OCCCNc2nc(N)nn2C)cc1` the figure was 125 to 126 °C; with `CSc1ncc(C(=O)O)c(Nc2ccc3[nH]ncc3c2)n1`, > 270 °C.

`Cc1ccc(Cc2c[nH]c(NCCSCc3ccco3)nc2=O)cn1` gave a melting point of 147 to 152 °C.

The molecule `CSc1ccc2c(c1)CCN2C(=O)Nc1cccnc1` yielded a melting point of 160 to 162 °C. In the case of `COc1c(C(=O)NC2CN3CCC2CC3)cc(Cl)c2c1CCCN2` (stereo unspecified), the melting point was in the range of 105 to 108 °C.

As to `N#Cc1ccc(Nn2cnnc2)cc1Br`, the melting point fell in the range of 234 to 236 °C.

Regarding `Cc1cc(Cl)c(C)cc1O`, the melting point fell in the range of 74 to 75 °C.

Molecule `c1cc2c(Nc3ccc4[nH]ccc4c3)ncnc2cn1` registered a melting point of 265 °C. With `CCOC(=O)C1=C(C)NC(C)=C(C(=O)OCC)C1c1cc(Cl)cc(Cl)c1` the figure was 102 to 104 °C. `O=C1NCC(c2ccc(Cl)cc2)C1c1ccccc1` (stereo unspecified) had a melting point of 130 to 135 °C. Next, `CC(C)c1cccc(C(C)C)c1NC(=S)NC(C)(C)C(C)(C)C`: 161 to 162 °C; `CC(CCCC(C)(C)O)C1CCC2C3C=CC4=CC(=O)C=CC4(C)C3CCC12C` (stereo unspecified): 180 to 182 °C; `C=CCn1cnc2c1c(=O)n(CCCCC(C)O)c(=O)n2C` (stereo unspecified): 71 °C. With `CN1C(=O)c2cc(CCc3ccncc3)cnc2N(C2CC2)c2nc(Cl)ccc21` the figure was 218 to 219 °C; with `Cc1cc2c(cc1C(=O)O)CCC(CCN1CCCC1)=C2`, 258 to 259 °C; with `CC(=O)NCCCCCCCCCCC(=O)O`, 62 to 65 °C. Next, `NC(=NCC(F)(F)F)Nc1ccnc(CCCO)n1`: 136 to 138 °C; `COc1ccc(CCNC(=O)[C@@H](O)CO)cc1OC1CCCC1`: 54 to 55 °C; `C1=CCc2c3c(c4ccccc4c2=C1)=c1c(c2ccccc2c2ccccc12)=C3`: 276 to 278 °C. The molecule `CCON=C(C(N)=O)C(=O)OC` came in with a melting point of 68 to 71 °C. The molecule `CNS(=O)(=O)N1CCNC1=O` had a melting point of 184 °C. `CN(C)C=C(C(=O)c1ccc(Cl)cc1Cl)n1cncn1` gave a melting point of 173 °C. With `CCS(=O)(=O)CCC(=O)NNC(=O)N1Cc2ccccc2Oc2c(Cl)cccc21` the figure was 209 to 211 °C. Molecule `CC(=O)N1OCC(=O)N(CO)C1c1ccccc1` (stereo unspecified) gave a melting point of 123 to 126 °C. For the molecule `O=C(O)c1ccccc1C=Cc1ccccc1`, the melting point was in the range of 158 to 159 °C.

For `S=C(NCCCN1CCCC1)NCCN(Cc1ccc(Cl)c(Cl)c1)c1ccc(Br)cn1`, the melting point lay in the range of 123 to 125 °C.

For `COc1ccc2c(c1)Sc1ccc(C(C)C(N)=O)cc1C(=O)C2` (stereo unspecified), the melting point lay in the range of 154 to 155 °C. For the molecule `Clc1ccc(OC2CN(C(c3ccccc3)c3ccccc3)C2)cc1Cl`, the melting point fell in the range of 114 to 115 °C. In turn, `CC(=O)N1CCSC1c1nsc2ccc(-n3c(=O)cc(C(F)(F)F)n(C)c3=O)cc12` (stereo unspecified) yielded a melting point of 135 to 140 °C. Next, `COc1cc2[nH]c(C(=O)O)cc2cc1F`: 239 to 240 °C; `O=C(NC1CCc2[nH]c3ccc(OC(F)(F)F)cc3c2C1)OCc1ccccc1` (stereo unspecified): 123 to 126 °C; `O=C1N(N2CCCCC2)c2ccccc2C1(Cc1ccccc1)c1ccccc1` (stereo unspecified): 114 to 116 °C. With `COC(=O)c1ccc(Cl)c(-n2nnn(C)c2=O)c1Cl` the figure was 135 to 137 °C; with `COc1ccc(-n2c(=O)n(OCc3ccccc3)c(=O)c3cc(F)c(F)cc32)cc1`, 211 to 212 °C.

The molecule `CCSc1nccnc1C(=O)CC` registered a melting point of 45 to 48 °C.

`N=C(N)c1ccc(N2CCN(c3ccc(OCC(=O)O)cc3)CC2)cc1`: the melting point is > 340 °C.

For orientation: melting point means the temperature of the solid-liquid transition.
